Experiment: Ability to inhibit blood platelet aggregation of human platelet-rich plasma induced by TP-receptor agonist U 46619

| IC50 | SMILES |
| --- | --- |
| 26000 nM | O=C(O)CC/C=C1\C[C@H]2C[C@@H](O)[C@H](C=NNC(=O)Nc3ccccc3)[C@H]2C1 |
| 200 nM | O=C(O)CCC/C=C1\C[C@H]2C[C@@H](O)[C@H](C=NNC(=O)Nc3ccc(Cl)c(Cl)c3)[C@H]2C1 |
| 1400 nM | O=C(O)COC/C=C1/C[C@H]2C[C@@H](O)[C@H](C=NNC(=O)Nc3ccccc3)[C@H]2C1 |
| 5200 nM | O=C(O)CC/C=C1\C[C@H]2C[C@@H](O)[C@H](C=NNC(=O)Nc3cccc(Cl)c3)[C@H]2C1 |
| 1800 nM | O=C(O)CCC/C=C1/C[C@H]2CC[C@H](C=NNC(=O)Nc3ccc(Cl)c(Cl)c3)[C@H]2C1 |
| 50 nM | O=C(O)CCC/C=C1/CC2CC(O)C([CH+][N-]NC(=O)Nc3ccc([N+](=O)[O-])cc3)C2C1 (stereo unspecified) |
| 1600 nM | O=C(O)COC/C=C1\C[C@H]2C[C@@H](O)[C@H](C=NNC(=O)Nc3cccc(Cl)c3)[C@H]2C1 |
| 580 nM | O=C(O)CCC/C=C1/CC2CCC([CH+][N-]NC(=O)Nc3ccc([N+](=O)[O-])cc3)C2C1 (stereo unspecified) |
| 100 nM | O=C(O)CCC/C=C1/C[C@H]2C[C@@H](O)[C@H](C=NNC(=O)Nc3ccccc3)[C@H]2C1 |
| 2300 nM | O=C(O)CCC/C=C1/C[C@H]2CC[C@H](C=NNC(=O)Nc3ccccc3)[C@H]2C1 |
| 6500 nM | O=C(O)CCC/C=C1\C[C@H]2CC[C@H](C=NNC(=O)Nc3cccc(Cl)c3)[C@H]2C1 |
| 9000 nM | O=C(O)CCC/C=C1\C[C@H]2CC[C@H](C=NNC(=O)Nc3ccc(Cl)c(Cl)c3)[C@H]2C1 |
| 520 nM | O=C(O)CC/C=C1\CC2CC(O)C([CH+][N-]NC(=O)Nc3ccc([N+](=O)[O-])cc3)C2C1 (stereo unspecified) |
| 6000 nM | O=C(O)COC/C=C1\C[C@H]2C[C@@H](O)[C@H](C=NNC(=O)Nc3ccccc3)[C@H]2C1 |
| 12000 nM | O=C(O)CCC/C=C1\C[C@H]2CC[C@H](C=NNC(=O)Nc3ccccc3)[C@H]2C1 |
| 130 nM | O=C(O)CCC/C=C1\C[C@H]2C[C@@H](O)[C@H](C=NNC(=O)Nc3cccc(Cl)c3)[C@H]2C1 |

From BindingDB's records for doi:10.1016/S0960-894X(01)80876-3 (1993)
